Measurements from paper PMC6930659, “Antiprotozoal Activity of Turkish Origanum onites Essential Oil and Its Components” (Molecules, 2019).
Converted amounts (≈) assume the structure as drawn. Like-named read-outs stand apart in the source and are kept apart here.

Columns and labels:
[1] = system: Trypanosoma brucei rhodesiense STIB 900; assay: In vitro assay for Trypanosoma brucei rhodesiense (resazurin); assay type: cell-based; details: Trypanosoma brucei, 72 h, read-out: IC50 Trypanosoma brucei rhodesiense
Description: Trypanosoma brucei rhodesiense STIB 900 strain, isolated in 1982 from a human patient in Tanzania and, after several mouse passages, cloned and adapted to axenic culture conditions, was used in this assay. Minimum essential medium (50 μL) supplemented with 25 mM HEPES, 1 g/L additional glucose, 1% MEM non-essential amino acids (100×), 0.2 mM 2-mercaptoethanol, 1 mM Na-pyruvate, and 15% heat inactivated horse serum was added to each well of a 96 well microtiter plate. Serial drug dilutions of seven 3-fold dilution steps covering a range from 90 to 0.123 μg/mL were prepared, and then 4 × 10^4 blood stream forms of T. b. rhodesiense STIB 900 in 50 μL were added to each well and the plate was incubated at 37 °C under a 5% CO2 atmosphere for 72 h. Resazurin solution (resazurin, 12.5 mg in 100 mL double-distilled water) (10 μL) was then added to each well and incubated for a further 2–4 h. At the end of the assay, the plates were read with a Spectramax Gemini XS microplate fluorometer (Molecular Devices Cooperation, Sunnyvale, CA, USA) using an excitation wavelength of 536 nm and an emission wavelength of 588 nm. Data were analyzed using the microplate reader software Softmax Pro (Molecular Devices Cooperation, Sunnyvale, CA, USA). Melarsoprol was used as standard drug.

Leishmania = system: Leishmania; design: method as in PMID 15793164; details: oral administration in mice for 30 days; cited from earlier work
[2] = system: T. cruzi Tulahuen strain C2C4; assay: In vitro assay for Trypanosoma cruzi in L-6 cells (β-galactosidase/CPRG); assay type: cell-based; details: Trypanosoma cruzi, L6; Tulahuen C2C4 in L-6 cells, 96 h; highest concentration tested 90 μg/mL; means of two determinations ± deviation
Description: Rat skeletal myoblasts (L-6 cells) were seeded in 96 well microtiter plates (2000 cells/well) in 100 μL RPMI 1640 medium with 10% FBS and 2 mM L-glutamine for 24 h. After that, the medium was removed and replaced by 100 μL per well containing 5000 trypomastigote forms of T. cruzi Tulahuen strain C2C4, containing the β-galactosidase (Lac Z) gene. The medium was removed from the wells after 48 h, and replaced with 100 μL fresh medium with or without a serial drug dilution of seven 3-fold dilution steps covering a range from 90 to 0.123 μg/mL. After 96 h of incubation, the plates were inspected under an inverted microscope to assure growth of the controls and sterility, after which the substrate CPRG/Nonidet ([…]) was added to all wells. A color reaction developed within 2–6 h and could be read photometrically at 540 nm. Data were transferred into the graphic program Softmax Pro (Molecular Devices Cooperation, Sunnyvale, CA, USA) and the IC50 values were calculated from the sigmoidal dose response curves. Benznidazole was the reference drug.

[3] = system: L. donovani (strain MHOM/ET/67/L82) amastigotes; assay: In vitro assay for Leishmania donovani axenic amastigotes (resazurin); assay type: cell-based; details: axenic amastigotes, 72 h, means of two determinations ± deviation, read-out: IC50 Leishmania donovani
Description: Amastigotes of L. donovani (strain MHOM/ET/67/L82) were grown in axenic culture at 37 °C in SM medium at pH 5.4 supplemented with 10% heat-inactivated FBS under an atmosphere of 5% CO2. Culture medium (100 μL) with 10^5 amastigotes from axenic culture with or without a serial drug dilution was seeded in 96 well microtiter plates. Serial drug was prepared covering a range of dilutions from 90 to 0.123 μg/mL. After 72 h of incubation, the plates were inspected under an inverted microscope to assure growth of the controls and sterile conditions. Subsequently, 10 μL resazurin solution (12.5 mg resazurin dissolved in 100 mL double-distilled water) was added to each well and the plates were incubated for another 2 h. The plates were then read with a Spectramax Gemini XS microplate fluorometer (Molecular Devices Cooperation, Sunnyvale, CA, USA) using an excitation wavelength of 536 nm and an emission wavelength of 588 nm. Data were analyzed using the software Softmax Pro (Molecular Devices Cooperation, Sunnyvale, CA, USA). A decrease of fluorescence (=inhibition) was expressed as percentage of the fluorescence of control cultures and plotted against the drug concentrations. From the sigmoidal inhibition curves, the IC50 values were calculated. Miltefosine was used as a reference drug.

P. falciparum K1 strain = assay: In vitro assay for Plasmodium falciparum ([3H]-hypoxanthine incorporation); assay type: cell-based
Description: Activity against the erythrocytic stages of P. falciparum was determined using an in vitro modified [^3H]-hypoxanthine incorporation assay, using the chloroquine- and pyrimethamine-resistant K1 strain [68]. Compounds were dissolved in DMSO at 10 mg/mL and further diluted in medium before added to parasite cultures incubated in RPMI 1640 medium without hypoxanthine, supplemented with HEPES (5.94 g/l), NaHCO3 (2.1 g/L), neomycin (100 U/mL), AlbumaxR (5 g/L), and washed human red cells A+ at 2.5% haematocrit (0.3% parasitaemia). Serial drug dilutions of seven 3-fold dilution steps covering a range from 90 to 0.123 μg/mL were prepared. The 96 well plates were incubated in a humidified atmosphere at 37 °C; 4% CO2, 3% O2, 93% N2. After 48 h 50 μL of ^3H-hypoxanthine (=0.5 μCi) was added to each well of the plate. The plates were incubated for a further 24 h under the same conditions. The plates were then harvested with a Betaplate™ cell harvester (Wallac, Zurich, Switzerland), and the red blood cells transferred onto a glass fiber filter then washed with distilled water. The dried filters were inserted into a plastic foil with 10 mL of scintillation fluid, and counted in a Betaplate™ liquid scintillation counter (Wallac, Zurich, Switzerland). […] IC50 values were calculated from the sigmoidal inhibition curves using Microsoft Excel. Chloroquine was used as positive control drug.

[4] = In vitro assay for cytotoxicity on mammalian cells (resazurin); assay type: cell-based, rat
Description: (§1) Assays were performed in 96 well microtiter plates (4 × 10^4 L6 cells/well), each well containing 100 μL of RPMI 1640 medium supplemented with 1% L-glutamine (200 mM) and 10% FBS. L6 cells are a primary cell line derived from rat skeletal myoblasts. Serial drug dilutions of seven 3-fold dilution steps covering a range from 90 to 0.123 μg/mL were prepared. After 72 h of incubation, the plates were inspected under an inverted microscope to assure growth of the controls and sterile conditions. Resazurin solution (10 μL) (12.5 mg resazurin in 100 mL double-distilled water) was then added to each well and the plates incubated for another 2 h. The plates were then read with a Spectramax Gemini XS microplate fluorometer (Molecular Devices Cooperation, Sunnyvale, CA, USA) using an excitation wavelength of 536 nm and an emission wavelength of 588 nm. Data were analyzed using the microplate reader software Softmax Pro (Molecular Devices Cooperation, Sunnyvale, CA, USA). From the sigmoidal inhibition curves, the IC50 values were calculated. Podophyllotoxin was the positive control.

[5] = system: T. brucei bloodstream forms; design: method as in PMID 10865458; details: cited from earlier work
T. brucei brucei STIB795 = assay: In vivo trypanocidal activity, T. brucei brucei STIB795 mouse model; design: species or system Trypanosoma brucei brucei; details: 5.0 mg/kg × 4 days i.p., NMRI mice; for Mean Survival: untreated control 5.25 days
Description: In vivo efficacy studies in mice were conducted at the Swiss Tropical and Public Health Institute (Basel) (License number 2813) according to the rules and regulations for the protection of animal rights (“Tierschutzverordnung”) of the Swiss “Bundesamt für Veterinärwesen”. They were approved by the veterinary office of Canton Basel-Stadt, Switzerland. Groups of four female NMRI mice weighing 20 to 25 g were infected i.p. on Day 0 (d0) with 10^5 bloodstream forms of T. brucei brucei STIB 795, which is a derivative of strain 427. Compounds were formulated in 100% DMSO diluted 10-fold in distilled water. Mice were treated on four consecutive days (d3 to d6 post-infection) with the Origanum onites oil, as well as carvacrol and thymol, at 100 mg/kg by the i.p. route. One group served as untreated controls, and two other groups were treated with the standard drugs pentamidine (5 mg/kg for 4 days) and melarsoprol (2 mg/kg for 4 days), respectively. The levels of parasitemia of the mice were checked by microscopic examination of tail blood on Day 7 and thereafter twice a week until Day 30 post infection. Mice were considered cured when there was no parasitaemia relapse detected in the tail blood over the 30 day observation period. The day of relapse and surviving days were recorded.

L6 cells = assay: In vitro assay for cytotoxicity on mammalian cells (resazurin); assay type: cell-based, rat; details: rat
Description: as §1

[6] = STIB 900 blood stream forms, means of two independent determinations ± deviation from the mean
[7] = K1 strain (chloroquine- and pyrimethamine-resistant), erythrocytic stages, means of two determinations ± deviation, read-out: IC50 Plasmodium falciparum
[8] = L6 cells (rat skeletal myoblasts), rat skeletal myoblasts, 72 h, means of two determinations ± deviation, read-out: IC50 Cytotoxicity L6 cells

Structure (SMILES) | IC50 [1, 6] | IC50 [2] | IC50 [3] | IC50 (P. falciparum K1 strain; [7]) | IC50 at 72 h [4, 8] | further results
Nc1nc(N)nc(Nc2ccc([As]3SCC(CO)S3)cc2)n1 (centres unmarked) [melarsoprol, reference compound] | – | – | – | – | – | IC50 [1]: 0.003 µg/mL
CNC[C@H](O)[C@@H](O)[C@H](O)[C@H](O)CO.[O]=[Sb](=[O])[OH] [glucantime] | – | – | – | – | – | reduction of the parasite burden (Leishmania): 100%
COc1cc(C)ccc1C(C)C [Thymol Methyl Ether] | 4.1 ± 1.97 µg/mL (≈ 25 µM) | > 90 µg/mL | 86 ± 1.9 µg/mL (≈ 524 µM) | > 20 µg/mL | – | IC50 at 72 h ([4]; rat): > 90 µg/mL
CC1=CCC(O)(C(C)C)CC1 (centres unmarked) [Terpinen-4-ol] | 0.66 ± 0.4 µg/mL (≈ 4.28 µM) | 46.8 ± 7.4 µg/mL (≈ 303 µM) | 68.7 ± 14.2 µg/mL (≈ 445 µM) | > 20 µg/mL | 43.3 ± 16.5 µg/mL (≈ 281 µM) | ED50 T. brucei bloodstream forms [5]: 0.02 µg/mL (≈ 0.13 µM); selectivity to the parasite than to the human cell line [5]: 1000 fold
O=C(Cn1ccnc1[N+](=O)[O-])NCc1ccccc1 [benznidazole, reference compound] | – | 0.44 µg/mL (≈ 1.69 µM) | – | – | – | –
N=C(N)c1ccc(OCCCCCOc2ccc(C(=N)N)cc2)cc1 [Pentamidine, reference compound] | – | – | – | – | – | Cured/Infected (T. brucei brucei STIB795): 4/4; Mean Survival (T. brucei brucei STIB795): >30 days; Mean Survival (T. brucei brucei STIB795; listed as pentamidine): over 30 days
CC1(C)C2CCC1(C)C(O)C2 (centres unmarked) [Borneol] | 24.3 ± 11.8 µg/mL (≈ 158 µM) | > 90 µg/mL | 52.1 ± 16.6 µg/mL (≈ 338 µM) | > 20 µg/mL | > 90 µg/mL | –
CCN(CC)CCCC(C)Nc1ccnc2cc(Cl)ccc12 (centres unmarked) [chloroquine, reference compound] | – | – | – | – | – | IC50 (P. falciparum K1 strain; K1, read-out: IC50 Plasmodium falciparum): 0.056 µg/mL (≈ 0.175 µM)
COc1cc(C(C)C)ccc1C [Carvacrol Methyl Ether] | 17 ± 22 µg/mL (≈ 104 µM) | > 90 µg/mL | 17.5 ± 1.7 µg/mL (≈ 107 µM) | > 20 µg/mL | – | IC50 at 72 h ([4]; rat): > 90 µg/mL
CC1=CC(=O)C(C(C)C)=CC1=O [Thymoquinone] | 0.11 ± 0.02 µg/mL (≈ 0.67 µM) | 18.2 ± 4.3 µg/mL (≈ 111 µM) | 1.7 ± 0.16 µg/mL (≈ 10.4 µM) | 2.6 ± 0.16 µg/mL (≈ 15.8 µM) | 20.5 ± 8.1 µg/mL (≈ 125 µM) | fold higher cytotoxicity on L6 cells than thymol (L6 cells): 2.5 fold
